This is an account of results in patent US8883782B2, “Spiro-tetracyclic ring compounds as beta-secretase modulators and methods of use” (Amgen Inc., priority 2010, dated 2014).

Molecules are shown by their SMILES. Read-outs that look alike come from different tables or passages of the source.

In assay [1] the target is Beta Secretase enzyme (BACE) (Homo sapiens, UniProt P56817). Nature of the assay: In vitro enzymatic BACE FRET (fluorescence resonance energy transfer) assay. It is filed as biochemical. To be noted: average IC50, enzyme assay. In short, it runs like this:
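Cleavage of a 50 nM fluorophore/quencher peptide FRET substrate by BACE for 1 h in 0.05 M acetate pH 4.2, 10% DMSO, 100 uM genapol. Reaction stopped with Tris to neutral pH before fluorescence reading.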

For assay [2], the system named is Aβ40 in conditioned medium of cells stably expressing Amyloid Precursor Protein (APP). Put plainly: In vitro BACE cell-based assay (Aβ40 in conditioned medium, sandwich ELISA). Particulars: Homo sapiens. In short, it runs like this:
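The sandwich ELISA pairs pAb40 capture (3 h, 4 °C) with 6E10 detection (2 h, 4 °C) and a streptavidin-europium TRF read-out. Supernatants come from APP-expressing cells grown in 10% FBS DMEM.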

Setting [3] is: HEK293, average IC50, read-out: HEK cell assay.

Chain of Beta Secretase enzyme (BACE) (P56817 46-501, species assumed): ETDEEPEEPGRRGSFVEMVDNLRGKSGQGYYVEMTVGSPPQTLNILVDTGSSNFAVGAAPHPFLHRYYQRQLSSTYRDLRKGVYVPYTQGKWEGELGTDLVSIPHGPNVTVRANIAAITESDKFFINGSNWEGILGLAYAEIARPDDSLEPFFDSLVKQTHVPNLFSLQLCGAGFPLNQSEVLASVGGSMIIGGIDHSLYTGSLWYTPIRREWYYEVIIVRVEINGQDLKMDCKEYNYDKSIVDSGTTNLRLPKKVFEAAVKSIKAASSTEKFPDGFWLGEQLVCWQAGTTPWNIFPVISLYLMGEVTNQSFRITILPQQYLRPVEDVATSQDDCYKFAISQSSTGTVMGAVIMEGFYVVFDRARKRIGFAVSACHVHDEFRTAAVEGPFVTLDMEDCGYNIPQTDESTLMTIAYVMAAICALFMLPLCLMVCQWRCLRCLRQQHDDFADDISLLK

In the case of `CC1(C)C=C(c2cnc3c(c2)[C@@]2(COC(N)=N2)c2c(ccc(-c4cncnc4)c2F)O3)CCO1` [Example 354, (5S)-3-(6,6-dimethyl-3,6-dihydro-2H-pyran-4-yl)-6-fluoro-7-(5-pyrimidinyl)spiro[chromeno[2,3-b]pyridine-5,4′-[1,3]oxazol]-2′-amine], the IC50 in assay [1] (read-out: BACE 1 FRET assay) was 0.0918 µM; in assay [2] (setting [3]), 0.342 µM.
The corresponding values for `CC1(C)CC(c2cnc3c(c2)[C@@]2(COC(N)=N2)c2c(ccc(-c4cncnc4)c2F)O3)=CCO1` [Example 355, (5S)-3-(2,2-dimethyl-3,6-dihydro-2H-pyran-4-yl)-6-fluoro-7-(5-pyrimidinyl)spiro[chromeno[2,3-b]pyridine-5,4′-[1,3]oxazol]-2′-amine] are 0.407 µM and 1.28 µM.
For `Cn1cc(-c2cnc3c(c2)[C@]2(COC(N)=N2)c2c(ccc(-c4cccnc4F)c2F)O3)cn1` [Example 356, (5R)-6-fluoro-7-(2-fluoro-3-pyridinyl)-3-(1-methyl-1H-pyrazol-4-yl)spiro[chromeno[2,3-b]pyridine-5,4′-[1,3]oxazol]-2′-amine] the same measures were 0.0009 µM and 0.0139 µM.
For `Cn1cc(-c2cnc3c(c2)[C@@]2(COC(N)=N2)c2c(ccc(-c4cccnc4F)c2F)O3)cn1` [Example 357, (5S)-6-fluoro-7-(2-fluoro-3-pyridinyl)-3-(1-methyl-1H-pyrazol-4-yl)spiro[chromeno[2,3-b]pyridine-5,4′-[1,3]oxazol]-2′-amine] the same measures were 1.05 µM and 2.13 µM.
On to `NC1=N[C@@]2(CO1)c1cc(-c3cnccc3F)ccc1Oc1ncc(C3=CCOCC3)cc12` [Example 358, (5S)-3-(3,6-dihydro-2H-pyran-4-yl)-7-(4-fluoro-3-pyridinyl)spiro[chromeno[2,3-b]pyridine-5,4′-[1,3]oxazol]-2′-amine], for which the values for the IC50 in assay [1] (read-out: BACE 1 FRET assay) and in assay [2] (setting [3]) were 0.0026 µM and 0.0246 µM, respectively.
For `CC1(COc2cc3c(cc2F)Oc2ccc(-c4cccnc4F)cc2[C@@]32COC(N)=N2)COC1` [Example 360, (4S)-3′-fluoro-7′-(2-fluoro-3-pyridinyl)-2′-((3-methyl-3-oxetanyl)methoxy)spiro[1,3-oxazole-4,9′-xanthen]-2-amine] the same measures were 0.0029 µM and 0.0224 µM.
With `NC1=N[C@@]2(CO1)c1cc(-c3cc(Cl)cnc3F)ccc1Oc1cnc(C3=CCOCC3)cc12` [Example 361, (5S)-7-(5-chloro-2-fluoro-3-pyridinyl)-3-(3,6-dihydro-2H-pyran-4-yl)spiro[chromeno[2,3-c]pyridine-5,4′-[1,3]oxazol]-2′-amine], the results for the IC50 in assay [1] (read-out: BACE 1 FRET assay) and in assay [2] (setting [3]) were 0.0005 µM and 0.0061 µM, respectively.
Regarding `NC1=N[C@@]2(CO1)c1cc(-c3cc(C4=CCOCC4)cnc3F)ccc1Oc1cnc(C3=CCOCC3)cc12` [Example 362, (5S)-3-(3,6-dihydro-2H-pyran-4-yl)-7-(5-(3,6-dihydro-2H-pyran-4-yl)-2-fluoro-3-pyridinyl)spiro[chromeno[2,3-c]pyridine-5,4′-[1,3]oxazol]-2′-amine], the IC50 was found to be 0.0063 µM in assay [1] (read-out: BACE 1 FRET assay) and 0.114 µM in assay [2] (setting [3]).
With `NC1=N[C@@]2(CO1)c1cc(-c3ccc(F)nc3)ccc1Oc1cnc(C3CCOCC3)cc12` [Example 363, (5S)-7-(6-fluoro-3-pyridinyl)-3-(tetrahydro-2H-pyran-4-yl)spiro[chromeno[2,3-c]pyridine-5,4′-[1,3]oxazol]-2′-amine], the results for the IC50 in assay [1] (read-out: BACE 1 FRET assay) and in assay [2] (setting [3]) were 0.0337 µM and 0.27 µM, respectively.
The corresponding values for `Cc1cc(-c2cc3c(cn2)Oc2ccc(-c4cccnc4F)cc2[C@@]32COC(N)=N2)on1` [Example 364, (5S)-7-(2-fluoro-3-pyridinyl)-3-(3-methyl-5-isoxazolyl)spiro[chromeno[2,3-c]pyridine-5,4′-[1,3]oxazol]-2′-amine] are 0.0069 µM and 0.0625 µM.
In the case of `Cn1cc(-c2cc3c(cn2)Oc2ccc(-c4ccc(F)nc4)cc2[C@@]32COC(N)=N2)cn1` [Example 365, (5S)-7-(6-fluoro-3-pyridinyl)-3-(1-methyl-1H-pyrazol-4-yl)spiro[chromeno[2,3-c]pyridine-5,4′-[1,3]oxazol]-2′-amine], the IC50 in assay [1] (read-out: BACE 1 FRET assay) came to 0.0108 µM; in assay [2] (setting [3]) it was 0.0424 µM.
For `Cc1cc(-c2cc3c(cn2)Oc2ccc(-c4ccccc4)cc2[C@@]32COC(N)=N2)on1` [Example 366, (5S)-3-(3-methyl-5-isoxazolyl)-7-phenylspiro[chromeno[2,3-c]pyridine-5,4′-[1,3]oxazol]-2′-amine] the same measures were 0.0801 µM and 0.361 µM.
For `Cn1cc(-c2cc3c(cn2)Oc2ccc(-c4ccccc4)cc2[C@@]32COC(N)=N2)cn1` [Example 367, (5S)-3-(1-methyl-1H-pyrazol-4-yl)-7-phenylspiro[chromeno[2,3-c]pyridine-5,4′-[1,3]oxazol]-2′-amine] the same measures were 0.0133 µM and 0.074 µM.
The corresponding values for `CC1(C)C[C@H](c2cc3c(cn2)Oc2ccc(-c4cccnc4)cc2[C@@]32COC(N)=N2)CCO1` [Example 368, (5S)-3-((4R)-2,2-dimethyltetrahydro-2H-pyran-4-yl)-7-(3-pyridinyl)spiro[chromeno[2,3-c]pyridine-5,4′-[1,3]oxazol]-2′-amine] are 0.0104 µM and 0.0379 µM.
As to `CC1(C)CC(c2cc3c(cn2)Oc2ccc(-c4ccc(F)nc4)cc2[C@@]32COC(N)=N2)=CCO1` [Example 370, (5S)-3-(2,2-dimethyl-3,6-dihydro-2H-pyran-4-yl)-7-(6-fluoro-3-pyridinyl)spiro[chromeno[2,3-c]pyridine-5,4′-[1,3]oxazol]-2′-amine], the IC50 in assay [1] (read-out: BACE 1 FRET assay) came out at 0.0036 µM; in assay [2] (setting [3]) it was 0.0237 µM.
For `CC1(C)CC(c2cc3c(cn2)Oc2ccc(-c4cncc(F)c4)cc2[C@@]32COC(N)=N2)=CCO1` [Example 371, (5S)-3-(2,2-dimethyl-3,6-dihydro-2H-pyran-4-yl)-7-(5-fluoro-3-pyridinyl)spiro[chromeno[2,3-c]pyridine-5,4′-[1,3]oxazol]-2′-amine] the same measures were 0.002 µM and 0.0107 µM.
For `CC(C)(C)/C=C/c1cc2c(cn1)Oc1ccc(-c3cncc(F)c3)cc1[C@@]21COC(N)=N1` [Example 372, (5S)-3-((1E)-3,3-dimethyl-1-buten-1-yl)-7-(5-fluoro-3-pyridinyl)spiro[chromeno[2,3-c]pyridine-5,4′-[1,3]oxazol]-2′-amine] the same measures were 0.0008 µM and 0.0149 µM.
For `NC1=N[C@@]2(CO1)c1cc(-c3cncc(F)c3)ccc1Oc1cnc(-c3cncc(F)c3)cc12` [Example 373, (5S)-3,7-bis(5-fluoro-3-pyridinyl)spiro[chromeno[2,3-c]pyridine-5,4′-[1,3]oxazol]-2′-amine] the same measures were 0.0022 µM and 0.0228 µM.
For `NC1=N[C@@]2(CO1)c1cc(-c3cncc(F)c3)ccc1Oc1cnc(-c3ccnc(F)c3)cc12` [Example 376, (5S)-3-(2-fluoro-4-pyridinyl)-7-(5-fluoro-3-pyridinyl)spiro[chromeno[2,3-c]pyridine-5,4′-[1,3]oxazol]-2′-amine], the figures for the IC50 in assay [1] (read-out: BACE 1 FRET assay) and in assay [2] (setting [3]) were 0.0026 µM and 0.033 µM, respectively.
Consider `CC1(C)C[C@H](c2cc3c(cn2)Oc2ccc(-c4cccnc4F)cc2[C@@]32COC(N)=N2)CCO1` [Example 377, (5S)-3-((4R)-2,2-dimethyltetrahydro-2H-pyran-4-yl)-7-(2-fluoro-3-pyridinyl)spiro[chromeno[2,3-c]pyridine-5,4′-[1,3]oxazol]-2′-amine], for which the IC50 amounted to 0.0059 µM in assay [1] (read-out: BACE 1 FRET assay) and 0.0294 µM in assay [2] (setting [3]).
The corresponding values for `CC1(C)C[C@@H](c2cc3c(cn2)Oc2ccc(-c4cccnc4F)cc2[C@@]32COC(N)=N2)CCO1` [Example 378, (5S)-3-((4S)-2,2-dimethyltetrahydro-2H-pyran-4-yl)-7-(2-fluoro-3-pyridinyl)spiro[chromeno[2,3-c]pyridine-5,4′-[1,3]oxazol]-2′-amine] are 0.0043 µM and 0.0264 µM.
Take `CC1(C)C[C@@H](c2cc3c(cn2)Oc2ccc(-c4ccc(F)nc4)cc2[C@@]32COC(N)=N2)CCO1` [Example 379, (5S)-3-((4S)-2,2-dimethyltetrahydro-2H-pyran-4-yl)-7-(6-fluoro-3-pyridinyl)spiro[chromeno[2,3-c]pyridine-5,4′-[1,3]oxazol]-2′-amine]: the IC50 is 0.0232 µM in assay [1] (read-out: BACE 1 FRET assay) and 0.176 µM in assay [2] (setting [3]).
The corresponding values for `CC1(C)C[C@@H](c2cc3c(cn2)Oc2ccc(-c4cncc(F)c4)cc2[C@@]32COC(N)=N2)CCO1` [Example 380, (5S)-3-((4S)-2,2-dimethyltetrahydro-2H-pyran-4-yl)-7-(5-fluoro-3-pyridinyl)spiro[chromeno[2,3-c]pyridine-5,4′-[1,3]oxazol]-2′-amine] are 0.0302 µM and 0.101 µM.
For `NC1=N[C@@]2(CO1)c1cc(-c3cncc(F)c3)ccc1Oc1cnc([C@@H]3CCCCO3)cc12` [Example 381, (5S)-7-(5-fluoro-3-pyridinyl)-3-((2S)-tetrahydro-2H-pyran-2-yl)spiro[chromeno[2,3-c]pyridine-5,4′-[1,3]oxazol]-2′-amine] the same measures were 0.0073 µM and 0.0626 µM.
For the molecule `NC1=N[C@@]2(CO1)c1cc(-c3cccnc3F)ccc1Oc1cnc([C@@H]3CCCOC3)cc12` [Example 382, (5S)-7-(2-fluoro-3-pyridinyl)-3-((3S)-tetrahydro-2H-pyran-3-yl)spiro[chromeno[2,3-c]pyridine-5,4′-[1,3]oxazol]-2′-amine], the IC50 is 0.0113 µM in assay [1] (BACE 1 FRET assay (uM)) and 0.123 µM in assay [2] (HEK293, read-out: HEK cell assay (uM)).
Take `CC(C)(C)/C=C/c1ccc2c(c1)[C@]1(COC(N)=N1)c1cc(Cl)ncc1O2` [Example 383, (5R)-3-chloro-7-((1E)-3,3-dimethyl-1-buten-1-yl)spiro[chromeno[2,3-c]pyridine-5,4′-[1,3]oxazol]-2′-amine]: the IC50 was found to be 0.622 µM in assay [1] (read-out: BACE 1 FRET assay) and 2.56 µM in assay [2] (HEK293, average IC50, HEK cells, read-out: HEK cell assay).
